These results are taken from PMC12563087, “Preparation, Stability and In Vitro Antineoplastic Function of Lecithin–Chitosan–Polyethylene Glycol Nanoparticles Loaded with Bioactive Peptides Derived from Phycocyanin” (Foods, 2025).

This data set relates to pepsin. The experiment in a line: In vitro simulated gastric digestion (pepsin) of PCPs and PCP-loaded NPs. The settings on record: after 20 min of in vitro simulated gastric digestion by pepsin; mean ± SD. The format is in vitro ADME.

Ends that are not written are not given here.

For ADSLLSGLR [PCP2], the degradation rate is recorded as 71.65% ± 2.99%. In the case of AGDASVLEDR [PCP1] it was 78.82% ± 3.46%; in that of MFDAFTK [PCP3], 77.24% ± 1.72%.
